Values after ≈ are worked out from the molar mass of the structure shown.

Holding throughout (assay): Antibacterial assay (Test A), microtitration MIC
For assay [1], the system named is HINF 30063. It is filed as cell-based, H. influenza. The conditions noted are these: Minimum Inhibitory Concentration, strain HINF 30063. Here is the method:
(§1) Test A—Antibacterial Assays
(§2) The compounds of the present invention were tested against an assortment of Gram-negative and Gram-positive organisms using standard microtitration techniques (Cohen et. al., Antimicrob., 1985;28:766; Heifetz, et. al., Antimicrob., 1974;6:124).

Assay [2] has as its system SPNE 9912. In kind it is cell-based, S. pneumoniae. The following applies: Streptococcus pneumoniae; Minimum Inhibitory Concentration, strain SPNE 9912; read-out: SPNE 9912 MIC. As for the experimental part:
as §1, §2

The test system of assay [3] is MC 30603. In kind it is cell-based, M. catarrhalis. The conditions noted are these: Moraxella catarrhalis; Minimum Inhibitory Concentration, strain MC 30603; read-out: MC 30603 MIC. Here is the method: as §1, §2
Assay [4] concerns SAUR 9213. It is filed as cell-based, S. aureus. The conditions noted are these: Staphylococcus aureus; Minimum Inhibitory Concentration, strain SAUR 9213; read-out: SAUR 9213 MIC. As for the experimental part:
as §1, §2

`CC(=O)NC[C@H]1CN(c2ccc(C3CC[C@@H](O)[C@@H](O)C3)cc2)C(=O)O1` (single isomer, unassigned) [Example 12, N-{3-[4-(3,4-Dihydroxy-cyclohexyl)-phenyl]-2-oxo-oxazolidin-5-ylmethyl}-acetamide]: the MIC in assay [1] was determined as 16 µg/mL (≈ 45.9 µM); in assay [2] it was 4 µg/mL (≈ 11.5 µM); in assay [3] it was 16 µg/mL (≈ 45.9 µM); in assay [4], 16 µg/mL (≈ 45.9 µM).

In the case of `O=C1O[C@@H](CNC(=S)C(F)F)CN1c1ccc(C2CCC(O)C(F)C2)c(F)c1` (single isomer, unassigned) [Example 28, 2,2-Difluoro-N-{3-[3-fluoro-4-(3-fluoro-4-hydroxy-cyclohexyl)-phenyl]-2-oxo-oxazolidin-5-ylmethyl}-thioacetamide], the MIC in assay [1] stood at 32 µg/mL (≈ 76.1 µM); in assay [2] it was 0.5 µg/mL (≈ 1.19 µM); in assay [3], 2 µg/mL (≈ 4.76 µM); in assay [4], 1 µg/mL (≈ 2.38 µM).

For the molecule `CC(=O)NC[C@H]1CN(c2ccc(N3CC/C(=N/O)[C@@H](O)C3)c(F)c2)C(=O)O1` (stereo in doubt) [Example 3, N-{3-[3-Fluoro-4-(3-hydroxy-4-hydroxyimino-piperidin-1-yl)-phenyl]-2-oxo-oxazolidin-5-ylmethyl}-acetamide], the MIC is 16 µg/mL (≈ 42.1 µM) in assay [1], 2 µg/mL (≈ 5.26 µM) in assay [2], 16 µg/mL (≈ 42.1 µM) in assay [3] and 8 µg/mL (≈ 21 µM) in assay [4].

On to `O=C1O[C@@H](CNC(=S)C(F)F)CN1c1ccc(C2CCC(O)[C@@H](O)C2)cc1` (stereo in doubt) [Example 15, N-{3-[4-(3,4-Dihydroxy-cyclohexyl)-phenyl]-2-oxo-oxazolidin-5-ylmethyl}-2,2-difluoro-thioacetamide], for which the MIC in assay [1] stood at 16 µg/mL (≈ 40 µM); in assay [2], 1 µg/mL (≈ 2.5 µM); in assay [3] it was 8 µg/mL (≈ 20 µM); in assay [4], 4 µg/mL (≈ 9.99 µM).

Take `O=C(NC[C@H]1CN(c2ccc(C3CCC(O)[C@@H](O)C3)cc2)C(=O)O1)C(Cl)Cl` (stereo in doubt) [Example 13, 2,2-Dichloro-N-{3-[4-(3,4-dihydroxy-cyclohexyl)-phenyl]-2-oxo-oxazolidin-5-ylmethyl}-acetamide]: the MIC came to 8 µg/mL (≈ 19.2 µM) in assay [1], 1 µg/mL (≈ 2.4 µM) in assay [2], 8 µg/mL (≈ 19.2 µM) in assay [3] and 8 µg/mL (≈ 19.2 µM) in assay [4].

The record behind these values is patent US20050065187A1, “Novel antimicrobial aryloxazolidinone compounds” (priority 2003, published 2005).
